Assay results reported in patent publication US9132108B2, “Pharmaceutical composition for ameliorating and/or preventing leptin resistance, and use thereof” (HIROSHIMA UNIVERSITY, priority 2009, dated 2015).

Legend:
mice given high-fat diet = assay: High-fat diet-induced accumulation of visceral fat (Example 5); assay type: in vivo, mouse; conditions: Group 4 (high-fat diet+flurbiprofen) vs Group 2; 10 mg/kg per day orally, 8 weeks; significance level <5%
Procedure: 4 weeks-old mice (C57BL/6 Cr Slc) were divided into four groups each consisting of 7-8 mice. Mice of individual groups were given diets as follows for 8 weeks similarly with Example 4. • Group 1: Normal diet (10 kcal % fat) only • Group 2: High-fat diet (60 kcal % fat) only • Group 3: Normal diet+flurbiprofen • Group 4: High-fat diet+flurbiprofen Flurbiprofen (F8514, produced by SIGMA) was diluted with drinking water so that the administration amount of flurbiprofen would be 10 mg/kg per day, and was orally administered to the mice in the form of drinking water. The mice raised for 8 weeks with high-fat diet or normal diet were cut open along a median line, and the amount of fatty tissue (visceral fat) was measured. Visceral fat was extracted from the abdomen of a mouse, and wet weight of the fat was measured. […] FIG. 9 is a graph showing the amounts of fat contents of mice of individual groups to which flurbiprofen had been administered for 8 weeks. Values in the graph of FIG. 9 are averages of the amounts (g) of fat of mice of each group (± their standard deviations) (n=7-8 with respect to each group). Further, statistic analysis was carried out using t-test.

mice = assay: Body length of mice after flurbiprofen administration (Example 10); assay type: in vivo, mouse; conditions: flurbiprofen-administered group vs control group; 3 mg/kg per day orally, 3 weeks
Procedure: Similarly with Example 8, 4 weeks-old male mice (C57BL/6 Cr Slc) had been given high-fat diet for 6 months so that leptin resistance would be induced in the mice. Thereafter, the mice were divided into two groups (each consisting of 8 mice), and the mice of individual groups were given the following diets for 3 weeks. • Control group (Cont): normal diet (10 kcal % fat) only • Flurbiprofen-administered group (Ful): normal diet+flurbiprofen Flurbiprofen (F8514, produced by SIGMA) was diluted with drinking water so that the administration amount of flurbiprofen would be 3 mg/kg per day, and was orally administered to the mice in the form of drinking water. The result of measurement of body length of the mice, to which flurbiprofen had been administered for 3 weeks, is shown in FIG. 16. FIG. 16 is a graph showing the body length (cm) of the mice of the control group and the mice of the flurbiprofen-administered group which had been given normal diet for 3 weeks. Values in the graph of FIG. 16 are averages of body lengths (cm) of mice of each group (± their standard deviations) (n=8 with respect to each group). Further, statistic analysis was carried out using t-test.

body length (mice): no significant difference in body length
SMILES: C[C@@H](C(=O)O)c1ccc(-c2ccccc2)c(F)c1 [flurbiprofen]
amount of fat content (visceral fat, wet weight) (mice given high-fat diet): significant decrease in the amount of fat content
